Laboratory results from publication PMC3859622, “Functional Characterization of ECP-Heparin Interaction: A Novel Molecular Model” (PLoS ONE, 2013).
Numbering of substitutions follows the chain as printed. Names and notes keep the numbering of the source. Values joined by “and” are separate entries in the source; they are usually repeats but may differ in a detail not shown here. Identical values can stand only once. Like-named read-outs stand apart in the source and are kept apart here.

Assays:
[1] = target: T1, wtECP (Homo sapiens, UniProt P12724); test: ITC of heparins with wtECP; type: binding; conditions: ITC 25 °C, PBS pH 7.4
T1 construct: His6 (C); made in house; host or cells: Escherichia coli BL21 (DE3) CodonPlus
T1 sequence (P12724 28-160): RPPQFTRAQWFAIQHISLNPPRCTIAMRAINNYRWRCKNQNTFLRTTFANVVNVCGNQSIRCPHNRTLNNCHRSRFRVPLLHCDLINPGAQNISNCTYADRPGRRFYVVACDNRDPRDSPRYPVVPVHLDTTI
Method: (§1) Thermodynamic analysis of wtECP and mutant ECPs to bind heparin was performed using a MicroCal iTC200 calorimeter (MicroCal, Northampton, USA) [38]. ECP was dialyzed against PBS before use and the same buffer was used to prepare heparin solutions. All experiments were performed at 25 °C, using ECP (20 μM, as protein) and heparin (200 μM). The protein solution was placed in a calorimeter cell and the heparin solution was loaded into the syringe injector. In individual titration, auto-controlled microsyringe injected 2 μL heparin solution into the protein solution with an interval of 120 sec. The integrated heat change was analyzed by means of non-linear regression using the MicroCal Origin software, and enthalpy change (ΔH), dissociation constant (K D), and stoichiometry value (N = X/M) were obtained from a single sigmoidal titration curve [39]. […] The effect of dilution of the heparin solution in the titration cell was removed by subtracting calorimetric data for a blank titration, which consisted of titration of heparin solution into PBS.

[2] = target: T2, ECP Q40A (Homo sapiens, UniProt P12724, Q67A); test: ITC of heparins with ECP Q40A; type: binding; conditions: ITC 25 °C, PBS pH 7.4
T2 sequence (P12724 28-160 Q67A): T1 sequence (P12724 28-160) with Q40A
Method: as §1

[3] = target: T3, ECP H64A (Homo sapiens, UniProt P12724, H91A); test: ITC of heparins with ECP H64A; type: binding; conditions: ITC 25 °C, PBS pH 7.4
T3 sequence (P12724 28-160 H91A): T1 sequence (P12724 28-160) with H64A
Method: as §1

[4] = target: T4, ECP Q40A/H64A (Homo sapiens, UniProt P12724, H91A/Q67A); test: ITC of heparins with ECP Q40A/H64A; type: binding; conditions: ITC 25 °C, PBS pH 7.4
T4 sequence (P12724 28-160 Q67A/H91A): T1 sequence (P12724 28-160) with Q40A, H64A
Method: as §1

[5] = target: T5, ECP R105A (Homo sapiens, UniProt P12724, R132A); test: ITC of heparins with ECP R105A; type: binding; conditions: ITC 25 °C, PBS pH 7.4
T5 sequence (P12724 28-160 R132A): T1 sequence (P12724 28-160) with R105A
Method: as §1

[6] = system: EDN; conditions: calculated, cited from earlier work
[7] = system: EDN W7A; parameters: method as in earlier work; conditions: calculated, Hep6 docked to EDN W7A; cited from earlier work
[8] = system: EDN W10A; parameters: method as in earlier work; conditions: calculated, Hep6 docked to EDN W10A; cited from earlier work
[9] = system: EDN Q14A; parameters: method as in earlier work; conditions: calculated, Hep6 docked to EDN Q14A; cited from earlier work
[10] = system: EDN H15A; parameters: method as in earlier work; conditions: calculated, Hep6 docked to EDN H15A; cited from earlier work
[11] = system: EDN Q34A; parameters: method as in earlier work; conditions: calculated, Hep6 docked to EDN Q34A; cited from earlier work
[12] = system: EDN R36A; parameters: method as in earlier work; conditions: calculated, Hep6 docked to EDN R36A; cited from earlier work
[13] = system: EDN K38A; parameters: method as in earlier work; conditions: calculated, Hep6 docked to EDN K38A; cited from earlier work
[14] = system: EDN N39A; parameters: method as in earlier work; conditions: calculated, Hep6 docked to EDN N39A; cited from earlier work
[15] = system: EDN Q40A; parameters: method as in earlier work; conditions: calculated, Hep6 docked to EDN Q40A; cited from earlier work
[16] = system: EDN H129A; parameters: method as in earlier work; conditions: calculated, Hep6 docked to EDN H129A; cited from earlier work
[17] = system: EDN L130A; parameters: method as in earlier work; conditions: calculated, Hep6 docked to EDN L130A; cited from earlier work
[18] = system: EDN R132A; parameters: method as in earlier work; conditions: calculated, Hep6 docked to EDN R132A; cited from earlier work
[19] = system: yeast tRNA; test: Ribonuclease activity, yeast tRNA digestion; type: biochemical; conditions: yeast tRNA cleavage, 37 °C, 15 min, pH 7.4
Method: Ribonuclease activities of recombinant wtECP and mutant ECPs were measured using yeast tRNA (Invitrogen, USA) digestion method, using bovine pancreatic RNaseA (USB, USA) as positive control. Three hundred microliters of 100 mM sodium phosphate buffer, pH 7.4, and 500 μl diethylpyrocarbonate-ddH2O were mixed with 50 μl 0.05 μM RNaseA and 5 μM wtECP or each mutant ECP separately. Ten microliters of 5 mg/ml yeast tRNA was added and incubated at 37 °C for 0, 5, 10 and 15 min. Ice-cold 500 μl stop solution (1:1, v/v, 40 mM lanthanum nitrate and 6% perchloric acid) was added and shaken for 10 min to stop reaction. Intact yeast tRNA was […] by centrifugation at 16,100 × g at 25 °C for 5 min. One hundred microliters of supernatant in each tube was placed on to a 96-well plate. The amount of soluble tRNA in supernatant was determined by A260 nm. The calculation has been described previously.

[20] = parameters: method as in PMID 9357326; conditions: relative to EDN; cited from earlier work
[21] = system: yeast tRNA; parameters: method as in PMID 9649619; conditions: cited from earlier work

For `O=C(O)[C@@H]1O[C@@H](O[C@H]2[C@H](O)[C@@H](NS(=O)(=O)O)[C@@H](O[C@H]3[C@H](O)[C@@H](OS(=O)(=O)O)C(O)O[C@H]3C(=O)O)O[C@@H]2COS(=O)(=O)O)[C@H](OS(=O)(=O)O)[C@@H](O)[C@@H]1O[C@H]1O[C@H](COS(=O)(=O)O)[C@@H](O[C@@H]2O[C@@H](C(=O)O)[C@@H](O[C@H]3O[C@H](COS(=O)(=O)O)[C@@H](O)[C@H](O)[C@H]3NS(=O)(=O)O)[C@H](O)[C@H]2OS(=O)(=O)O)[C@H](O)[C@H]1NS(=O)(=O)O` (stereo partly drawn) [Hep6, [GlcNS(6S)-IdoA(2S)]3], the “N (sites)” value [1] was 1.77 ± 0.1 sites, the TΔS [1] was 4.8 ± 0.1 kcal/mol and the ΔG [1] was -7.8 kcal/mol and -7.8 ± 0.1 kcal/mol. The “N (sites)” value [2] was 1.7 ± 0.1 sites, the TΔS [2] was 3.2 ± 0.2 kcal/mol and the ΔG [2] was -7.6 kcal/mol and -7.6 ± 0.2 kcal/mol. For the same molecule, the ΔH [2] was -4.4 ± 0.3 kcal/mol, the “N (sites)” value [3] was 2.74 ± 0.3 sites and the TΔS [3] was 2 ± 0.3 kcal/mol. For the same molecule, the ΔG [3] was -7.7 kcal/mol and -7.7 ± 0.4 kcal/mol, the ΔH [3] was -5.8 ± 0.4 kcal/mol and the “N (sites)” value [4] was 2.45 ± 0.1 sites. The TΔS [4] was 3.7 ± 0.1 kcal/mol, the ΔG [4] was -7.5 kcal/mol and -7.5 ± 0.1 kcal/mol and the ΔH [4] was -3.9 ± 0.2 kcal/mol. The “N (sites)” value [5] was 2.81 ± 0.1 sites, the TΔS [5] was 3.3 ± 0.1 kcal/mol and the ΔG [5] was -7.9 kcal/mol and -7.9 ± 0.2 kcal/mol. The ΔH [5] was -4.4 ± 0.2 kcal/mol, the Binding energy ([6]; Hep6 docked to wild type EDN, previous docking simulation data) was -9.27 kcal/mol and the Contribution ([6]; contribution of EDN H15 to Hep6 binding energy) was -0.34 kcal/mol. The Contribution ([6]; contribution of EDN K38 to Hep6 binding energy) was -0.61 kcal/mol, the Contribution ([6]; contribution of EDN L130 to Hep6 binding energy) was -0.08 kcal/mol and the Contribution ([6]; contribution of EDN N39 to Hep6 binding energy) was -0.29 kcal/mol. The Contribution ([6]; contribution of EDN Q14 to Hep6 binding energy) was -0.46 kcal/mol, the Contribution ([6]; contribution of EDN Q34 to Hep6 binding energy) was -0.39 kcal/mol and the Contribution ([6]; contribution of EDN Q40 to Hep6 binding energy) was -0.77 kcal/mol. The Contribution ([6]; contribution of EDN R36 to Hep6 binding energy) was -0.56 kcal/mol, the Contribution ([6]; contribution of EDN R132 to Hep6 binding energy) was -0.46 kcal/mol and the Contribution ([6]; contribution of EDN W7 to Hep6 binding energy) was -0.34 kcal/mol. The Contribution ([6]; contribution of EDN W10 to Hep6 binding energy) was -0.39 kcal/mol, the Contribution ([6]; contribution of EDN residue printed H120 (row H129A) to Hep6 binding energy) was -0.22 kcal/mol and the Binding energy [7] was -8.93 kcal/mol. For the same molecule, the Binding energy [8] was -8.88 kcal/mol, the Binding energy [9] was -8.81 kcal/mol and the Binding energy [10] was -8.93 kcal/mol. The Binding energy [11] was -8.88 kcal/mol, the Binding energy [12] was -8.71 kcal/mol and the Binding energy [13] was -8.66 kcal/mol. For the same molecule, the Binding energy [14] was -8.98 kcal/mol, the Binding energy [15] was -8.50 kcal/mol and the Binding energy [16] was -9.05 kcal/mol. The Binding energy [17] was -9.19 kcal/mol and the Binding energy [18] was -8.81 kcal/mol.

B1: wtECP: recombinant wild type human eosinophil cationic protein with C-terminal His6 tag, refolded from E. coli (protein, UniProt P12724 28-160, looked up)
Eosinophil cationic protein: T1 sequence (P12724 28-160)
modifications: C-terminal His6 tag
For B1, the RNase activity [19] is given as 0.0049 soluble tRNA/pmol and 0.0049 ± 0.0001 soluble tRNA/pmol and the “Ribonucleolytic activity of EDN” value [20] is given as 1%.

B2: Q40A: single mutant recombinant ECP, Gln40 to Ala (protein, UniProt P12724 28-160, looked up, variant Q40A)
Eosinophil cationic protein: T1 sequence (P12724 28-160) with Q40A
With B2 the RNase activity [19] was 0.0043 soluble tRNA/pmol and 0.0043 ± 0.0001 soluble tRNA/pmol.

B3: R105A: single mutant recombinant ECP, Arg105 to Ala (protein, UniProt P12724 28-160, looked up, variant R105A)
Eosinophil cationic protein: T1 sequence (P12724 28-160) with R105A
For B3, the RNase activity [19] was 0.0032 soluble tRNA/pmol and 0.0032 ± 0.0002 soluble tRNA/pmol.

B4: H64A: single mutant recombinant ECP, His64 to Ala (protein, UniProt P12724 28-160, looked up, variant H64A)
Eosinophil cationic protein: T1 sequence (P12724 28-160) with H64A
In the case of B4, the RNase activity [19] is reported as 0.0068 soluble tRNA/pmol and 0.0068 ± 0.0001 soluble tRNA/pmol.

B5: Q40A/H64A: double mutant recombinant ECP, Gln40 and His64 to Ala (protein, UniProt P12724 28-160, looked up, variant Q40A H64A)
Eosinophil cationic protein: T1 sequence (P12724 28-160) with Q40A, H64A
In the case of B5, the RNase activity [19] is reported as 0.0056 soluble tRNA/pmol and 0.0056 ± 0.0002 soluble tRNA/pmol.

B6: Bovine RNase A: bovine pancreatic RNaseA (USB), positive control (protein, UniProt P61823 27-150, looked up)
Ribonuclease pancreatic: KETAAAKFERQHMDSSTSAASSSNYCNQMMKSRNLTKDRCKPVNTFVHESLADVQAVCSQKNVACKNGQTNCYQSYSTMSITDCRETGSSKYPNCAYKTTQANKHIIVACEGNPYVPVHFDASV
In the case of B6, the RNase activity [19] is given as 1.1710 ± 0.0131 soluble tRNA/pmol, the RNase activity ([19]; listed as bovine RNaseA) is given as 1.171 soluble tRNA/pmol and the “RNase activity, reported number” value [21] is given as 1.208 soluble tRNA/pmol.
